# Measurements: ChEMBL document CHEMBL3745645, “Synthesis, in vitro antitumor activity, dihydrofolate reductase inhibition, DNA intercalation and structure-activity relationship studies of 1,3,5-triazine analogues” (Bioorg Med Chem Lett, 2016)
# Active and inactive are the calls of the source. The rule behind the calls is not given here.
# What was measured:
# Type in all cases: functional
# SK-OV-3 = assay: Cytotoxicity against human SKOV3 cells at 10 uM after 48 hrs by SRB assay
# NCI-H460 = assay: Cytotoxicity against human NCI-H460 cells at 10 uM after 48 hrs by SRB assay; details: NCI-H460, 48 h, read-out: GI
# ACHN = assay: Cytotoxicity against human ACHN cells at 10 uM after 48 hrs by SRB assay; details: read-out: GI
# [1] = Cytotoxicity against human UO31 cells at 10 uM after 48 hrs by SRB assay; details: UO-31, 48 h, read-out: GI
# LOX IMVI = assay: Cytotoxicity against human LOXIMVI cells at 10 uM after 48 hrs by SRB assay
# UACC-257 = assay: Cytotoxicity against human UACC257 cells at 10 uM after 48 hrs by SRB assay
# IGROV-1 = assay: Cytotoxicity against human IGROV1 cells at 10 uM after 48 hrs by SRB assay
# [2] = Cytotoxicity against human MOLT4 cells at 10 uM after 48 hrs by SRB assay; details: MOLT-4, 48 h, read-out: GI
# 786-0 = assay: Cytotoxicity against human 786-0 cells at 10 uM after 48 hrs by SRB assay; details: 786-0, 48 h, read-out: GI
# [3] = Cytotoxicity against human HOP92 cells at 10 uM after 48 hrs by SRB assay; details: HOP-92, 48 h, read-out: GI
# HT-29 = assay: Cytotoxicity against human HT-29 cells at 10 uM after 48 hrs by SRB assay
# Malme-3M = assay: Cytotoxicity against human MALME-3M cells at 10 uM after 48 hrs by SRB assay; details: read-out: GI
# [4] = Cytotoxicity against human HCT15 cells at 10 uM after 48 hrs by SRB assay; details: HCT-15, 48 h, read-out: GI
# M14 = assay: Cytotoxicity against human M14 cells at 10 uM after 48 hrs by SRB assay; details: M14, 48 h, read-out: GI
# SN12C = assay: Cytotoxicity against human SN12C cells at 10 uM after 48 hrs by SRB assay; details: read-out: GI
# SK-MEL-5 = assay: Cytotoxicity against human SK-MEL-5 cells at 10 uM after 48 hrs by SRB assay; details: SK-MEL-5, 48 h, read-out: GI
# [5] = Cytotoxicity against human RPMI8226 cells at 10 uM after 48 hrs by SRB assay; details: RPMI-8226, 48 h, read-out: GI
# [6] = Cytotoxicity against human PC3 cells at 10 uM after 48 hrs by SRB assay; details: PC-3, 48 h, read-out: GI
# U-251 = assay: Cytotoxicity against human U251 cells at 10 uM after 48 hrs by SRB assay; details: U-251, 48 h, read-out: GI
# [7] = Cytotoxicity against human COLO205 cells at 10 uM after 48 hrs by SRB assay; details: COLO 205, 48 h, read-out: GI
# [8] = Cytotoxicity against human OVCAR3 cells at 10 uM after 48 hrs by SRB assay; details: OVCAR-3, 48 h, read-out: GI
# [9] = Cytotoxicity against human HOP62 cells at 10 uM after 48 hrs by SRB assay; details: HOP-62, 48 h, read-out: GI
# SK-MEL-28 = assay: Cytotoxicity against human SK-MEL-28 cells at 10 uM after 48 hrs by SRB assay
# K562 = assay: Cytotoxicity against human K562 cells at 10 uM after 48 hrs by SRB assay; details: K562, 48 h, read-out: GI
# [10] = Cytotoxicity against human BT549 cells at 10 uM after 48 hrs by SRB assay; details: BT-549, 48 h, read-out: GI
# [11] = Cytotoxicity against human UACC62 cells at 10 uM after 48 hrs by SRB assay; details: UACC-62, 48 h, read-out: GI
# SF-268 = assay: Cytotoxicity against human SF268 cells at 10 uM after 48 hrs by SRB assay
# CCRF-CEM = assay: Cytotoxicity against human CCRF-CEM cells at 10 uM after 48 hrs by SRB assay; details: read-out: GI
# T47D = assay: Cytotoxicity against human T47D cells at 10 uM after 48 hrs by SRB assay; details: read-out: GI
# [12] = Cytotoxicity against human NCI-ADR-RES cells at 10 uM after 48 hrs by SRB assay; details: read-out: GI
# NCI-H522 = assay: Cytotoxicity against human NCI-H522 cells at 10 uM after 48 hrs by SRB assay; details: NCI-H522, 48 h, read-out: GI
# MDA-MB-435 = assay: Cytotoxicity against human MDA-MB-435 cells at 10 uM after 48 hrs by SRB assay; details: MDA-MB-435, 48 h, read-out: GI
# MDA-MB-468 = assay: Cytotoxicity against human MDA-MB-468 cells at 10 uM after 48 hrs by SRB assay; details: MDA-MB-468, 48 h, read-out: GI
# DU-145 = assay: Cytotoxicity against human DU145 cells at 10 uM after 48 hrs by SRB assay
# HCC 2998 = assay: Cytotoxicity against human HCC2998 cells at 10 uM after 48 hrs by SRB assay
# [13] = Cytotoxicity against human SNB19 cells at 10 uM after 48 hrs by SRB assay; details: SNB-19, 48 h, read-out: GI
# MCF7 = assay: Cytotoxicity against human MCF7 cells at 10 uM after 48 hrs by SRB assay; details: MCF7, 48 h, read-out: GI
# [14] = Cytotoxicity against human SF295 cells at 10 uM after 48 hrs by SRB assay; details: SF-295, 48 h, read-out: GI
# NCI-H322M = assay: Cytotoxicity against human NCI-H322M cells at 10 uM after 48 hrs by SRB assay
# NCI-H226 = assay: Cytotoxicity against human NCI-H226 cells at 10 uM after 48 hrs by SRB assay; details: NCI-H226, 48 h, read-out: GI
# SR = assay: Cytotoxicity against human SR cells at 10 uM after 48 hrs by SRB assay; details: read-out: GI
# [15] = Cytotoxicity against human Hs 578T cells at 10 uM after 48 hrs by SRB assay; details: read-out: GI
# OVCAR-4 = assay: Cytotoxicity against human OVCAR4 cells at 10 uM after 48 hrs by SRB assay
# [16] = Cytotoxicity against human RXF393 cells at 10 uM after 48 hrs by SRB assay; details: RXF 393, 48 h, read-out: GI
# A498 = assay: Cytotoxicity against human A498 cells at 10 uM after 48 hrs by SRB assay; details: A498, 48 h, read-out: GI
# [17] = Cytotoxicity against human OVCAR8 cells at 10 uM after 48 hrs by SRB assay; details: OVCAR-8, 48 h, read-out: GI
# [18] = Cytotoxicity against human SF539 cells at 10 uM after 48 hrs by SRB assay; details: SF-539, 48 h, read-out: GI
# [19] = Cytotoxicity against human HCT116 cells at 10 uM after 48 hrs by SRB assay; details: HCT-116, 48 h, read-out: GI
# TK-10 = assay: Cytotoxicity against human TK10 cells at 10 uM after 48 hrs by SRB assay
# A549 = assay: Cytotoxicity against human A549 cells at 10 uM after 48 hrs by SRB assay; details: A549, 48 h, read-out: GI
# [20] = Cytotoxicity against human SNB75 cells at 10 uM after 48 hrs by SRB assay; details: SNB-75, 48 h, read-out: GI
# [21] = Cytotoxicity against human SW620 cells at 10 uM after 48 hrs by SRB assay; details: SW-620, 48 h, read-out: GI
# NCI-H23 = assay: Cytotoxicity against human NCI-H23 cells at 10 uM after 48 hrs by SRB assay; details: NCI-H23, 48 h, read-out: GI
# MDA-MB-231 = assay: Cytotoxicity against human MDA-MB-231 cells at 10 uM after 48 hrs by SRB assay; details: MDA-MB-231, 48 h, read-out: GI
# KM12 = assay: Cytotoxicity against human KM12 cells at 10 uM after 48 hrs by SRB assay; details: KM12, 48 h, read-out: GI
# CAKI-1 = assay: Cytotoxicity against human Caki1 cells at 10 uM after 48 hrs by SRB assay
compound,measurement,setting,value
Cc1nc2ccc(Nc3nc(NCCO)nc(Nc4ccc(F)cc4)n3)cc2n1Cc1ccccc1,growth inhibition (GI),SK-OV-3,inactive
same,inhibition of growth at 10 µM,NCI-H460,4.15%
same,inhibition of growth at 10 µM,ACHN,4.66%
same,inhibition of growth at 10 µM,[1],13.2%
same,growth inhibition (GI),LOX IMVI,inactive
same,growth inhibition (GI),UACC-257,inactive
same,growth inhibition (GI),IGROV-1,inactive
same,inhibition of growth at 10 µM,[2],27.5%
same,inhibition of growth at 10 µM,786-0,11.9%
same,inhibition of growth at 10 µM,[3],19.4%
same,growth inhibition (GI),HT-29,inactive
same,inhibition of growth at 10 µM,Malme-3M,6.95%
same,inhibition of growth at 10 µM,[4],8.36%
same,inhibition of growth at 10 µM,M14,6.68%
same,inhibition of growth at 10 µM,SN12C,1.6%
same,inhibition of growth at 10 µM,SK-MEL-5,26%
same,inhibition of growth at 10 µM,[5],33.7%
same,inhibition of growth at 10 µM,[6],0.89%
same,inhibition of growth at 10 µM,U-251,6.96%
same,inhibition of growth at 10 µM,[7],6.67%
same,inhibition of growth at 10 µM,[8],3.09%
same,inhibition of growth at 10 µM,[9],0.23%
same,growth inhibition (GI),SK-MEL-28,inactive
same,inhibition of growth at 10 µM,K562,25.7%
same,inhibition of growth at 10 µM,[10],20.6%
same,inhibition of growth at 10 µM,[11],6.56%
same,growth inhibition (GI),SF-268,inactive
same,inhibition of growth at 10 µM,CCRF-CEM,25.3%
same,inhibition of growth at 10 µM,T47D,39.3%
same,inhibition of growth at 10 µM,[12],18.1%
same,inhibition of growth at 10 µM,NCI-H522,20.4%
same,inhibition of growth at 10 µM,MDA-MB-435,2.54%
same,inhibition of growth at 10 µM,MDA-MB-468,23%
same,growth inhibition (GI),DU-145,inactive
same,growth inhibition (GI),HCC 2998,inactive
same,inhibition of growth at 10 µM,[13],2.43%
same,inhibition of growth at 10 µM,MCF7,19.8%
same,inhibition of growth at 10 µM,[14],11%
same,growth inhibition (GI),NCI-H322M,inactive
same,inhibition of growth at 10 µM,NCI-H226,11.1%
same,inhibition of growth at 10 µM,SR,28.3%
same,inhibition of growth at 10 µM,[15],8.56%
same,growth inhibition (GI),OVCAR-4,inactive
same,inhibition of growth at 10 µM,[16],26.1%
same,inhibition of growth at 10 µM,A498,25.3%
same,inhibition of growth at 10 µM,[17],4.04%
same,inhibition of growth at 10 µM,[18],3.59%
same,inhibition of growth at 10 µM,[19],13.3%
same,growth inhibition (GI),TK-10,inactive
same,inhibition of growth at 10 µM,A549,13.8%
same,inhibition of growth at 10 µM,[20],8.89%
same,inhibition of growth at 10 µM,[21],0.58%
same,inhibition of growth at 10 µM,NCI-H23,6.24%
same,inhibition of growth at 10 µM,MDA-MB-231,7.95%
same,inhibition of growth at 10 µM,KM12,7.5%
same,growth inhibition (GI),CAKI-1,inactive
